# Values of other authors in US20070010670A1, “Nitrogen-containing fused ring compounds and use thereof” (Japan Tobacco Inc., priority 2004, published 2007).
# Key:
# CYP2C8 = molecular target: T1, CYP2C8 (Homo sapiens, UniProt P10632); conditions: cited from earlier work
# T1 sequence (P10632 1-490): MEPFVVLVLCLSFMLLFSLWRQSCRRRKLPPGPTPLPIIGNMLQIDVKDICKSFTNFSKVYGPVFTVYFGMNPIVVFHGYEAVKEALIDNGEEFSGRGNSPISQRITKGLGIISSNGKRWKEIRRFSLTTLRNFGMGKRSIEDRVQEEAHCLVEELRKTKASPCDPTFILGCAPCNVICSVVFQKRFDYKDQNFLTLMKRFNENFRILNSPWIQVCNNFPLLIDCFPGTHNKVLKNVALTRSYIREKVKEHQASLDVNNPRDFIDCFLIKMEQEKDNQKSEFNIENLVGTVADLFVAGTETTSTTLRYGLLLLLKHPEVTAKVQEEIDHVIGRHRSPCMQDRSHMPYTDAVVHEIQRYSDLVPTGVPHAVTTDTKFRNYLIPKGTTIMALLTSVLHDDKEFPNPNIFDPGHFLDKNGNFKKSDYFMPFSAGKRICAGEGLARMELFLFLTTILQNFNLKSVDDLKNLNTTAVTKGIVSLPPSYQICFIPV
# CYP2C19 = CYP2C19 (Homo sapiens, UniProt P33261); conditions: cited from earlier work
# CYP2C19, sequence (P33261 whole entry): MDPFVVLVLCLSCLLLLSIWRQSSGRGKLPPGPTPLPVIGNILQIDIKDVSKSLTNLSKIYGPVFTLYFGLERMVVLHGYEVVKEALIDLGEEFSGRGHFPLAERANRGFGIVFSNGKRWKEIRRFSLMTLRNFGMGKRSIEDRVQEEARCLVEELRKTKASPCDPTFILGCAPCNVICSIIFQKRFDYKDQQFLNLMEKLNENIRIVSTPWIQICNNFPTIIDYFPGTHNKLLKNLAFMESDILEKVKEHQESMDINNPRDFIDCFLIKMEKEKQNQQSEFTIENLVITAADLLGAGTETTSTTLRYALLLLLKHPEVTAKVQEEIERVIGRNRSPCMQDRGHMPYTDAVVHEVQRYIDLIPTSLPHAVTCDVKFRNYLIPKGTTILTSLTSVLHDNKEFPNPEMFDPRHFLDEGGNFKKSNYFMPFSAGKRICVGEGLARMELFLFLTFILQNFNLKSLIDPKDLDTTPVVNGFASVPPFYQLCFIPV
# CYP3A4 = CYP3A4 (Homo sapiens, UniProt P08684); conditions: cited from earlier work
# CYP3A4, sequence (P08684 whole entry): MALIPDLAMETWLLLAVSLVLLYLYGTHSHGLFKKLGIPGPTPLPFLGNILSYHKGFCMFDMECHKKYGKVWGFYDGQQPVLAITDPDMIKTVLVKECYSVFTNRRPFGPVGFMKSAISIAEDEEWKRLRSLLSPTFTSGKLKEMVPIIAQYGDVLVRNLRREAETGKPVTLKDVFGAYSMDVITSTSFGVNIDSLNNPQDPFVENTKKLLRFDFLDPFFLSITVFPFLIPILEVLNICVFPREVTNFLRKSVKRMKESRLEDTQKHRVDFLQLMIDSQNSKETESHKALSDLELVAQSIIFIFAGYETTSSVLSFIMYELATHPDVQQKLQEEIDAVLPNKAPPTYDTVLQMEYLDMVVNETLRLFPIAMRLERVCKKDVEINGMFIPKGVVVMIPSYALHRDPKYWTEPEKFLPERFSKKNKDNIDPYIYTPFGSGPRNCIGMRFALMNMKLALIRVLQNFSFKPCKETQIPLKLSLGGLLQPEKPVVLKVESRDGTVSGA
# URAT1 = molecular target: T2, URAT1 (Homo sapiens, UniProt Q96S37); parameters: host or cells: Xenopus laevis oocyte expression system; conditions: Xenopus laevis oocyte expression system; cited from earlier work
# T2 sequence (Q96S37 1-553): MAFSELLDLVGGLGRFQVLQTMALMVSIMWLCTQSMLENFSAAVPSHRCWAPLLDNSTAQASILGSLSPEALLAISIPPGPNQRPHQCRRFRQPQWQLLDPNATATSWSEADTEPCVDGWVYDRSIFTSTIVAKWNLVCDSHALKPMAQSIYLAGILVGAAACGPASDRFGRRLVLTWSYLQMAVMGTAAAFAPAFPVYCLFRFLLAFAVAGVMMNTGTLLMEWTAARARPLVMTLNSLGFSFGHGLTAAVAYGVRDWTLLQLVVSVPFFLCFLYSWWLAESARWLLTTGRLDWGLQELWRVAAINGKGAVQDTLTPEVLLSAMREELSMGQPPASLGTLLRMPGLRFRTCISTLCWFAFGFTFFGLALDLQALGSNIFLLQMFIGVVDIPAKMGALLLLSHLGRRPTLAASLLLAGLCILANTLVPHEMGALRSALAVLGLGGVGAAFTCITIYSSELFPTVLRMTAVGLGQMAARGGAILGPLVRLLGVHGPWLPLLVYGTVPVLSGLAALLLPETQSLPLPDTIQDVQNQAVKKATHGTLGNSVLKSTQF
smiles,measurement,setting,value
CCc1oc2ccccc2c1C(=O)c1cc(Br)c(O)c(Br)c1 [benzbromarone],inhibitory action on CYP2C8,CYP2C8,strong inhibitory action
same,inhibitory action on CYP2C19,CYP2C19,strong inhibitory action
same,inhibitory action on CYP3A4,CYP3A4,strong inhibitory action
same,uric acid uptake via URAT1,URAT1,inhibited
